Experimental data as given in PMC9447362.
Where two headings read alike, the source gives them in different places.

Tested on: P4 G4
Assay: In vitro translation (IVT) assays
Assay type: biochemical, SARS-CoV-2

Compound	IVT of P4-Mut	IVT of P4-Mut (P4-Mut (G/A mutations))
C[n+]1ccc(-c2c3nc(c(-c4cc[n+](C)cc4)c4ccc([nH]4)c(-c4cc[n+](C)cc4)c4nc(c(-c5cc[n+](C)cc5)c5ccc2[nH]5)C=C4)C=C3)cc1 [TMPyP4, 5,10,15,20-tetrakis-(N-methyl-4-pyridyl)porphine]	not for P4-Mut	–
NCCOc1cc(C(=O)Nc2cc(OCCN3CCCC3)c3ccccc3n2)nc(C(=O)Nc2cc(OCCN3CCCC3)c3ccccc3n2)c1 [PDP]	–	not for P4-Mut
